Measured values taken from ChEMBL document CHEMBL4837259, “Comprehensive Approach of 19F Nuclear Magnetic Resonance, Enzymatic, and In Silico Methods for Site-Specific Hit Selection and Validation of Fragment Molecules that Inhibit Methionine γ-Lyase Activity” (J Med Chem, 2021).
The source made the active and inactive calls. The calls are words filed in the database; no cut-off is given here.

What was measured:
Fusobacterium nucleatum [1] = assay: Inhibition of Fusobacterium nucleatum ATCC 25586 recombinant MGL K238A mutant expressed in Escherichia coli BL21 (DE3) assessed as decrease in signal intensity by measuring recovery ratio by 19F NMR based competition assay relative to wild type; parameters: concentration or dose not given beside the values
Fusobacterium nucleatum [2] = assay: Inhibition of Fusobacterium nucleatum ATCC 25586 recombinant MGL Y56F mutant expressed in Escherichia coli BL21 (DE3) assessed as decrease in signal intensity by measuring recovery ratio by 19F NMR based competition assay relative to wild type; parameters: concentration or dose not given beside the values
Fusobacterium nucleatum [3] = assay: Inhibition of Fusobacterium nucleatum ATCC 25586 recombinant MGL R373A mutant expressed in Escherichia coli BL21 (DE3) assessed as decrease in signal intensity by measuring recovery ratio by 19F NMR based competition assay relative to wild type; parameters: scale not given: the % may be the effect or the level left
[4] = biological target: T1, L-methionine gamma-lyase (Fusobacterium nucleatum subsp. nucleatum) (UniProt Q8RDT4); assay: Inhibition of Fusobacterium nucleatum ATCC 25586 recombinant wild type MGL expressed in Escherichia coli BL21 (DE3) assessed as formation of 2-ketobutyrate using L-methionine as substrate by enzymatic assay; parameters: concentration or dose not given beside the values; conditions: concentration not given here
T1 sequence (whole entry): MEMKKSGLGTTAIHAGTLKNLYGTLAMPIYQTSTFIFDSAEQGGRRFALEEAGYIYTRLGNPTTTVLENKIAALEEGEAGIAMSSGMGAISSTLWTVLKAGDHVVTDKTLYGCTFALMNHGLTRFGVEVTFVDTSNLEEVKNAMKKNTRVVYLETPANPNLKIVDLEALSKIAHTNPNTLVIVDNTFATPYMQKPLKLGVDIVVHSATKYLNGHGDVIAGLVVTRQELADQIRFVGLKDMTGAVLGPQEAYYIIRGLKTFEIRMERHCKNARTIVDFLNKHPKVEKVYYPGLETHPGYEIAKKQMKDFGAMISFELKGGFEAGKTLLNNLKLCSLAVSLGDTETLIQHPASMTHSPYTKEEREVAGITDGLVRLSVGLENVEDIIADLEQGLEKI

Fusobacterium nucleatum [5] = assay: Inhibition of Fusobacterium nucleatum ATCC 25586 recombinant MGL R58K mutant expressed in Escherichia coli BL21 (DE3) assessed as decrease in signal intensity by measuring recovery ratio by 19F NMR based competition assay relative to wild type; parameters: scale not given: the % may be the effect or the level left
Fusobacterium nucleatum [6] = assay: Inhibition of Fusobacterium nucleatum ATCC 25586 recombinant MGL R373K mutant expressed in Escherichia coli BL21 (DE3) assessed as decrease in signal intensity by measuring recovery ratio by 19F NMR based competition assay relative to wild type; parameters: concentration or dose not given beside the values
Fusobacterium nucleatum [7] = assay: Inhibition of Fusobacterium nucleatum ATCC 25586 recombinant MGL C113S mutant expressed in Escherichia coli BL21 (DE3) assessed as decrease in signal intensity by measuring recovery ratio by 19F NMR based competition assay relative to wild type; parameters: scale not given: the % may be the effect or the level left
Fusobacterium nucleatum [8] = assay: Inhibition of Fusobacterium nucleatum ATCC 25586 recombinant MGL Y111F mutant expressed in Escherichia coli BL21 (DE3) assessed as decrease in signal intensity by measuring recovery ratio by 19F NMR based competition assay relative to wild type; parameters: concentration or dose not given beside the values
[9] = biological target: T1, L-methionine gamma-lyase (Fusobacterium nucleatum subsp. nucleatum); assay: Inhibition of Fusobacterium nucleatum ATCC 25586 recombinant wild type MGL expressed in Escherichia coli BL21 (DE3) assessed as decrease in signal intensity by 19F NMR based competition assay relative to control; parameters: concentration or dose not given beside the values
Fusobacterium nucleatum [10] = assay: Inhibition of Fusobacterium nucleatum ATCC 25586 recombinant MGL R58A mutant expressed in Escherichia coli BL21 (DE3) assessed as decrease in signal intensity by measuring recovery ratio by 19F NMR based competition assay relative to wild type; parameters: scale not given: the % may be the effect or the level left

| Compound | Activity (Fusobacterium nucleatum [1]) | Activity (Fusobacterium nucleatum [2]) [%] | Activity (Fusobacterium nucleatum [3]) | inhibition [4] [%] | Activity (Fusobacterium nucleatum [5]) [%] | Activity (Fusobacterium nucleatum [6]) | Activity (Fusobacterium nucleatum [7]) | Activity (Fusobacterium nucleatum [8]) | Activity [9] [%] | Activity (Fusobacterium nucleatum [10]) [%] |
| --- | --- | --- | --- | --- | --- | --- | --- | --- | --- | --- |
| O=C(O)c1ccnc(OC(F)(F)F)c1 | 50% | 80 | 80% | 22.3 | 80 | 50% | Active | 50% | 76 | 80 |
| O=C(O)c1cc(C(F)(F)F)nn1Cc1ccccc1 | Active | 50 | 50% | 14.5 | 80 | 50% | inactive | 50% | 41 | 80 |
| CC(C)(C)OC(=O)N1CCC(CN)(c2ccc(F)cc2)CC1 | 50% | 80 | Active | 12.9 | 50 | Active | Active | 50% | 20 | 50 |
| CCOC(=O)c1nc(-c2ccc(F)cc2)no1 | Active | 80 | 80% | 33.1 | 50 | 50% | Active | 50% | 84 | 80 |
| CC(C)(Cc1ccc(C(F)(F)F)cc1)C(=O)O | 80% | 80 | 50% | 8.3 | 50 | inactive | Active | 80% | 55 | 80 |
| O=C(O)c1ccc(OC(F)F)nc1 | Active | 80 | 80% | 12.6 | 50 | Active | Active | Active | 78 | 50 |
| Cc1ccc2[nH]cc(C(C(=O)O)C(F)(F)F)c2c1 (stereo not given) | Active | 80 | 50% | 9.3 | 80 | Active | inactive | 80% | 48 | 80 |
| O=C(O)c1ccc(OCC(F)(F)F)cn1 | 50% | 80 | 80% | 15 | 80 | Active | 80% | 80% | 40 | 80 |
| Cc1cccc2c(C(C(=O)O)C(F)(F)F)c[nH]c12 (stereo not given) | 50% | 80 | 50% | -5.3 | 50 | Active | inactive | 50% | 44 | 80 |
| CCOC(=O)c1nc(-c2ccccc2F)no1 | Active | 80 | 80% | 13.3 | 50 | Active | Active | 50% | 82 | 50 |
| CC(C)(C)OC(=O)N1CCC(CN)(Cc2ccc(C(F)(F)F)cc2)CC1 | Active | 80 | Active | 78.3 | 50 | Active | 50% | Active | 78 | 50 |
| O=C(O)c1cc(F)c(OCC2CC2)c(F)c1 | Active | 80 | 80% | 9.5 | 50 | Active | Active | 80% | 77 | 80 |
